Reference: patent US20220267352A1, “RAPAMYCIN ANALOGS AND USES THEREOF” (Anakuria Therapeutics, Inc., priority 2021, published 2022)

Legend:
[1] = tested on: pS6K1 T389 and pAkt S473 in PC3 cells; test: Western blot based pS6K1 and pAKT assay at 24 and 48 hour timepoints; format: cell-based
Method: Example 57: Western Blot Based pS6K1 and pAKT Assay at 24 and 48 Hour Timepoints
Assay Protocol: • 1. Seed six well plate with 500,000 PC3 cells per well and incubate for 20˜24 hour. • 2. Add compounds into the cell plate. Incubate for 24 to 48 hours. • 4. Plate is placed on ice and the media is removed via aspiration. The wells are washed with 1 mL of 1x PBS and then fully aspirated. • 5. 110 μL of 1% Triton Lysis Buffer is added and each well is scraped vigorously. • 6. Cell homogenates are transferred to 1.5 mL eppendorf tubes on ice and spun down at 4° C. for 10 minutes at 10,000 rpm. • 7. Protein concentration of resulting cell lysates were quantified utilizing a Bradford assay and the samples run analyzed via Western blot on 4-12% Bis/Tris gels with 1×MES buffer. • 8. The gels were transferred onto membranes at 50V for 100 minutes, blocked with Odyssey Blocking buffer for 30 minutes then incubated overnight with primary antibody (pS6K1 T389 Rabbit or pAkt S473 Rabbit) overnight at 4° C. on a rotator. • 9. The membranes were washed 3× with TBS-T with a 5 minute incubation between each wash then incubated with secondary antibody (LiCor IRDye 800 Donkey Anti Rabbit) for at least 30 minutes. • 10. The membranes were washed 3× with TBS-T with a 5 minute incubation between each wash. • 11. The gels were then incubated for 5 minutes with PBS at room temperature then imaged using a Li-Cor.
Compounds that are not selective by comparing pS6K1 and pAKT IC50 by kinase assays are indicated by “NO” in the “mTORC1 selective @ 90 min” column of Table 4. […] Compounds that are not selective at the 24 hrs mark are indicated by “NO” in the “mTORC1 selective @ 24 hrs” column of Table 4. “N/A” stands for “not assayed” and “N/C” stands for “not calculated”.

[2] = tested on: p-p70 S6 Kinase (Thr389) in MCF-7 cells; test: AlphaLISA Ultra pS6K1 assay; format: cell-based; settings: Homo sapiens, 1.5 h; MCF7 cells, 90 min
Summary of the method: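 Phospho-S6K1 (Thr389) quantified by AlphaLISA Ultra read-out (2 h acceptor, then 2 h donor beads) in lysates of MCF-7 cells. Cells were plated 20–24 h before, refed 2 h, exposed to compounds for 90 min at 0.5% final DMSO, and lysates stored at −80 °C.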

Q: For `COCCOCCO[C@H]1C[C@@H]2CC[C@@H](C)[C@@](O)(O2)C(=O)C(=O)N2CCCC[C@H]2C(=O)O[C@H]([C@H](C)C[C@@H]2CC[C@@H](OC(F)F)[C@H](OC)C2)CC(=O)[C@H](C)/C=C(\C)[C@@H](O)[C@@H](OC)C(=O)[C@H](C)C[C@H](C)/C=C/C=C/C=C/1C` [I-4, (22E,24E,26E,27E,33R,34S,35R,36R,38S,40S,42S,43S,44R,45R,55R)-43-[(1R)-2-[(1S,3R,4R)-4-(difluoromethoxy)-3-methoxy-cyclohexyl]-1-methyl-ethyl]-44,55-dihydroxy-45-methoxy-42-[2-(2-methoxyethoxy)ethoxy]-33,34,35,36,46,47-hexamethyl-64,65-dioxa-56-azatricyclohexatriaconta-22,24,26(46),27(47)-tetraene-48,49,50,51,52-pentone], which “mTORC1 selective @ 24 hrs” value [1] is on record?
A: The value was “Yes”.

Q: And the IC50 [2]?
A: The IC50 was 1 to 10 nM.

Q: What does the source list for `CO[C@@H]1C[C@H](C[C@@H](C)[C@@H]2CC(=O)[C@H](C)/C=C(\C)[C@@H](O)[C@@H](OC)C(=O)[C@H](C)C[C@H](C)/C=C/C=C/C=C(\C)[C@@H](OCC3COCCO3)C[C@@H]3CC[C@@H](C)[C@@](O)(O3)C(=O)C(=O)N3CCCC[C@H]3C(=O)O2)CC[C@H]1OC(F)F` (stereo partly drawn) [I-9, (24E,26E,28E,29E,32R,33S,34R,35R,37S,39S,41S,42S,44R,45R,55R)-42-[(1R)-2-[(1S,3R,4R)-4-(difluoromethoxy)-3-methoxy-cyclohexyl]-1-methyl-ethyl]-41-(1,4-dioxan-2-ylmethoxy)-44,55-dihydroxy-45-methoxy-32,33,34,35,46,47-hexamethyl-66,67-dioxa-56-azatricyclohexatriaconta-24,26,28(46),29(47)-tetraene-48,49,50,51,52-pentone]?
A: mTORC1 selective @ 24 hrs [1]: Yes; IC50 [2]: 1 to 10 nM

Q: Which results are given for `CO[C@@H]1C[C@H](C[C@@H](C)[C@@H]2CC(=O)[C@H](C)/C=C(\C)[C@@H](O)[C@@H](OC)C(=O)[C@H](C)C[C@H](C)/C=C/C=C/C=C(\C)[C@@H](OCCOC3COC3)C[C@@H]3CC[C@@H](C)[C@@](O)(O3)C(=O)C(=O)N3CCCC[C@H]3C(=O)O2)CC[C@H]1OCCCN1CCOCC1` [I-14, (27E,29E,31E,32E,39R,40S,41R,42R,44S,46S,48S,49S,51R,52R,61R)-51,61-dihydroxy-52-methoxy-49-[(1R)-2-[(1S,3R,4R)-3-methoxy-4-(3-morpholinopropoxy)cyclohexyl]-1-methyl-ethyl]-39,40,41,42,53,54-hexamethyl-48-[2-(oxetan-3-yloxy)ethoxy]-73,74-dioxa-63-azatricyclohexatriaconta-27,29,31(53),32(54)-tetraene-55,56,57,58,59-pentone]?
A: mTORC1 selective @ 24 hrs [1]: Yes; IC50 [2]: < 1 nM

Q: Which “mTORC1 selective @ 24 hrs” value [1] does the source give for `CO[C@@H]1C[C@H](C[C@@H](C)[C@@H]2CC(=O)[C@H](C)/C=C(\C)[C@@H](O)[C@@H](OC)C(=O)[C@H](C)C[C@H](C)/C=C/C=C/C=C(\C)[C@@H](OCCOC3COC3)C[C@@H]3CC[C@@H](C)[C@@](O)(O3)C(=O)C(=O)N3CCCC[C@H]3C(=O)O2)CC[C@H]1OC(=O)NCCN1CCOCC1` [I-21, [(42S,44R,46R)-4-[(2R)-2-[(27E,29E,31E,32E,38R,39S,40R,41R,43S,45S,47S,48S,50R,51R,61R)-50,61-dihydroxy-51-methoxy-38,39,40,41,52,53-hexamethyl-47-[2-(oxetan-3-yloxy)ethoxy]-54,55,56,57,58-pentaoxo-75,76-dioxa-64-azatricyclohexatriaconta-27,29,31(52),32(53)-tetraen-48-yl]propyl]-46-methoxy-44-cyclohexyl] N-(2-morpholinoethyl)carbamate] here?
A: Its value is “Yes”.

Q: What about the IC50 [2] of the same compound?
A: Its IC50 is < 1 nM.

Q: For `CO[C@@H]1/C(C)=C/[C@@H](C)C(=O)C[C@@H]([C@H](C)C[C@@H]2CC[C@@H](O)[C@H](OC)C2)OC(=O)[C@@H]2CCCCN2C(=O)C(=O)[C@]2(O)O[C@@H](CC[C@H]2C)C[C@H](OCC2COCCO2)/C(C)=C/C=C/C=C/[C@@H](C)C[C@@H](C)C(=O)[C@@H]1OC` (stereo partly drawn) [I-27, (25E,27E,29E,30E,33R,34S,35R,36R,38S,40S,42S,43S,45R,46R,55R)-42-(1,4-dioxan-2-ylmethoxy)-55-hydroxy-43-[(1R)-2-[(1S,3R,4R)-4-hydroxy-3-methoxy-cyclohexyl]-1-methyl-ethyl]-45,46-dimethoxy-33,34,35,36,47,48-hexamethyl-66,67-dioxa-56-azatricyclohexatriaconta-25,27,29(47),30(48)-tetraene-49,50,51,52,53-pentone], which “mTORC1 selective @ 24 hrs” value [1] is on record?
A: Its value is “Yes”.

Q: What about the IC50 [2] of the same compound?
A: Its IC50 is 10 to 100 nM.

Q: How did the “mTORC1 selective @ 24 hrs” value [1] turn out when `COCCOCCO[C@H]1C[C@@H]2CC[C@@H](C)[C@@](O)(O2)C(=O)C(=O)N2CCCC[C@H]2C(=O)O[C@H]([C@H](C)C[C@@H]2CC[C@@H](OC)[C@H](OC)C2)CC(=O)[C@H](C)/C=C(\C)[C@@H](OC)[C@@H](OC)C(=O)[C@H](C)C[C@H](C)/C=C/C=C/C=C/1C` [I-31, (24E,26E,28E,29E,35R,36S,37R,38R,40S,42S,44S,45S,46R,47R,56R)-45-[(1R)-2-[(1S,3R,4R)-3,4-dimethoxycyclohexyl]-1-methyl-ethyl]-56-hydroxy-46,47-dimethoxy-44-[2-(2-methoxyethoxy)ethoxy]-35,36,37,38,48,49-hexamethyl-64,65-dioxa-57-azatricyclohexatriaconta-24,26,28(48),29(49)-tetraene-50,51,52,53,54-pentone] was run?
A: Its value is “Yes”.

Q: And the IC50 [2]?
A: Its IC50 is 10 to 100 nM.

Q: What does the source list for `COCCOCCO[C@H]1C[C@@H]2CC[C@@H](C)[C@@](O)(O2)C(=O)C(=O)N2CCCC[C@H]2C(=O)O[C@H]([C@H](C)C[C@@H]2CC[C@@H](OP(C)(C)=O)[C@H](OC)C2)CC(=O)[C@H](C)/C=C(\C)[C@@H](OC)[C@@H](OC)C(=O)[C@H](C)C[C@H](C)/C=C/C=C/C=C/1C` [I-34, (25E,27E,29E,30E,36R,37S,38R,39R,41S,43S,45S,46S,47R,48R,57R)-46-[(1R)-2-[(1S,3R,4R)-4-dimethylphosphoryloxy-3-methoxy-cyclohexyl]-1-methyl-ethyl]-57-hydroxy-47,48-dimethoxy-45-[2-(2-methoxyethoxy)ethoxy]-36,37,38,39,49,50-hexamethyl-66,67-dioxa-58-azatricyclohexatriaconta-25,27,29(49),30(50)-tetraene-51,52,53,54,55-pentone]?
A: mTORC1 selective @ 24 hrs [1]: Yes; IC50 [2]: 1 to 10 nM

Q: Which results are given for `COCCOCCO[C@H]1C[C@@H]2CC[C@@H](C)[C@@](O)(O2)C(=O)C(=O)N2CCCC[C@H]2C(=O)O[C@H]([C@H](C)C[C@@H]2CC[C@@H](OCCO)[C@H](OC)C2)CC(=O)[C@H](C)/C=C(\C)[C@@H](OC)[C@@H](OC)C(=O)[C@H](C)C[C@H](C)/C=C/C=C/C=C/1C` [I-37, (23E,25E,27E,28E,36R,37S,38R,39R,41S,43S,45S,46S,47R,48R,57R)-57-hydroxy-46-[(1R)-2-[(1S,3R,4R)-4-(2-hydroxyethoxy)-3-methoxy-cyclohexyl]-1-methyl-ethyl]-47,48-dimethoxy-45-[2-(2-methoxyethoxy)ethoxy]-36,37,38,39,49,50-hexamethyl-66,67-dioxa-58-azatricyclohexatriaconta-23,25,27(49),28(50)-tetraene-51,52,53,54,55-pentone]?
A: mTORC1 selective @ 24 hrs [1]: Yes; IC50 [2]: 1 to 10 nM

Q: Which “mTORC1 selective @ 24 hrs” value [1] does the source give for `CO[C@@H]1/C(C)=C/[C@@H](C)C(=O)C[C@@H]([C@H](C)C[C@@H]2CC[C@@H](OC)[C@H](OC)C2)OC(=O)[C@@H]2CCCCN2C(=O)C(=O)[C@]2(O)O[C@@H](CC[C@H]2C)C[C@H](OCC2COCCO2)/C(C)=C/C=C/C=C/[C@@H](C)C[C@@H](C)C(=O)[C@@H]1OC` (stereo partly drawn) [I-40, (26E,28E,30E,31E,34R,35S,36R,37R,39S,41S,43S,44S,46R,47R,56R)-44-[(1R)-2-[(1S,3R,4R)-3,4-dimethoxycyclohexyl]-1-methyl-ethyl]-43-(1,4-dioxan-2-ylmethoxy)-56-hydroxy-46,47-dimethoxy-34,35,36,37,48,49-hexamethyl-66,67-dioxa-57-azatricyclohexatriaconta-26,28,30(48),31(49)-tetraene-50,51,52,53,54-pentone] here?
A: The value was “Yes”.

Q: What about the IC50 [2] of the same compound?
A: The IC50 was ≥ 1000 nM.

Q: `COCCS(=O)(=O)CCO[C@H]1C[C@@H]2CC[C@@H](C)[C@@](O)(O2)C(=O)C(=O)N2CCCC[C@H]2C(=O)O[C@H]([C@H](C)C[C@@H]2CC[C@@H](OC)[C@H](OC)C2)CC(=O)[C@H](C)/C=C(\C)[C@@H](OC)[C@@H](OC)C(=O)[C@H](C)C[C@H](C)/C=C/C=C/C=C/1C` [I-43, (24E,26E,28E,29E,35R,36S,37R,38R,40S,42S,44S,45S,46R,47R,56R)-45-[(1R)-2-[(1S,3R,4R)-3,4-dimethoxycyclohexyl]-1-methyl-ethyl]-56-hydroxy-46,47-dimethoxy-44-[2-(2-methoxyethylsulfonyl)ethoxy]-35,36,37,38,48,49-hexamethyl-66,67-dioxa-57-azatricyclohexatriaconta-24,26,28(48),29(49)-tetraene-50,51,52,53,54-pentone] was tested. Which “mTORC1 selective @ 24 hrs” value [1] did it give?
A: Its value is “Yes”.

Q: And the IC50 [2]?
A: Its IC50 is 10 to 100 nM.
